Measurements reported in PMC11979273, “A phase I study to evaluate the safety, tolerability, and pharmacokinetics of HEC113995PA·H2O, a novel dual-acting serotonergic antidepressant, in healthy subjects” (Frontiers in Pharmacology, 2025).
Like-named read-outs stand apart in the source and are kept apart here.

Experiments:
[1] = Multiple ascending-dose study, safety (adverse events); assay type: in vivo
Description: Three drug doses (10, 20 and 40 mg) were utilized. A total of 36 healthy subjects of both genders were assigned randomly to the three groups (n = 12), with10 subjects taking HEC113995PA·H2O tablets and 2 taking placebo. The participants in the 10 mg dose group received a single dose daily in the morning after overnight fasting, or a single dose daily after a standard meal in the 20 mg and 40 mg dose groups for 10 consecutive days. Serial blood samples were collected within 0.5 h before drug administration on days 7, 8 and 9, and before and after drug administration on days 1 and 10 to determine plasma concentration and pharmacokinetic characteristics. Safety and tolerability were evaluated on days 4, 8, 13 and 15.
The trial was conducted in a dose-escalation manner, with the administration of the next dose arm only after the tolerability and safety of the previous arm had been fully evaluated. Following the assessments by both the investigator and the sponsor, the next dose level could be reverted to the previous dose group if deemed necessary. In such cases, twelve new healthy subjects (10 taking HEC113995PA·H2O tablets and 2 taking placebo) were enrolled to explore the maximum safe tolerated dose. Throughout the entire trial (including the SAD trial, FE trial and MAD trial), each subject was only allowed to participate in one dose group.
(§1) Safety indicators were assessed through adverse events (AE), clinical laboratory tests (including blood routine, blood biochemistry, urine routine), vital signs monitoring (ear temperature), pulse, respiration and blood pressure in a sitting position), 12-lead electrocardiogram (ECG) and physical examinations. Adverse events (AE) and serious adverse events (SAE) were evaluated following the criteria outlined in National Cancer Institute Common Terminology Criteria for Adverse Events (NCI-CTCAE) version 5.0.
(§2) Any adverse events that occurred in all subjects during the clinical trial were recorded with the following details: AE name, occurrence time, end time, severity, whether it was classified as a SAE, severity criteria (if applicable), treatment measures and outcomes, actions taken on investigational drug due to the AE, and the causal relationship between the AE and administrated drug, etc. Each AE was recorded separately.
(§3) The subjects were under close monitoring at the clinical research center until the sample retention and safety evaluation were completed. During the safety trial, drug intolerance of a given dose was defined as follows: grade 2 or higher drug-related AEs occurred in more than half of the subjects, or grade 3 or higher drug-related AEs occurred in more than one quarter of the subjects. The dose escalation was halted after drug intolerance occurred.

[2] = Single ascending-dose study, safety (adverse events); assay type: in vivo, human
Description: The study comprised a total of 7 dose groups (2.5, 5, 10, 20, 40, 60, and 80 mg groups, respectively). The first dose group (2.5 mg) consisted of 8 subjects, with 6 receiving HEC113995PA·H2O and 2 receiving placebo. Dose groups 2–7 each included 10 subjects, with 8 subjects receiving HEC113995PA·H2O and 2 subjects receiving placebo. Male and female participants were randomly assigned to the groups. Serial blood samples were collected before and after drug administration to determine the plasma concentration of pharmacokinetics (PK) and to evaluate the pharmacokinetic characteristics. The time points of blood collection and safety evaluation of PK in the second to seventh dose groups were adjusted based on the results of the first dose group. Drug safety and tolerability were evaluated on day 2 and 4 in the first dose group and on day 4 and 7 in the second to seventh dose groups. The trial was conducted in a dose-escalation manner, with progression to the next dose arm only after the safety of the previous arm had been evaluated. In the fourth group (20 mg group), in addition to blood samples, urine and stool samples were also collected for in vivo drug metabolic transformation studies.
as §1, §2, §3

[3] = Acid-base ionization constants; assay type: physicochemical
[4] = molecular target: 5-HT transporter (Homo sapiens, UniProt P31645); test: In vitro affinity and antagonistic activity for the 5-HT transporter; assay type: binding; conditions: unpublished data
[5] = system: other subtypes of 5-HT receptors, histamine receptors, and acetylcholine receptors; test: In vitro affinities or activities to other receptors; assay type: binding
[6] = system: mice; test: Behavioral despair models, mice; assay type: in vivo; conditions: single, multiple, and chronic administrations, unpublished data
[7] = system: rodent; test: In vivo rodent studies (comparison with Vilazodone, sedation); conditions: rodent behavioral despair models; unpublished data

Sequence of 5-HT transporter (P31645 whole entry, species assumed): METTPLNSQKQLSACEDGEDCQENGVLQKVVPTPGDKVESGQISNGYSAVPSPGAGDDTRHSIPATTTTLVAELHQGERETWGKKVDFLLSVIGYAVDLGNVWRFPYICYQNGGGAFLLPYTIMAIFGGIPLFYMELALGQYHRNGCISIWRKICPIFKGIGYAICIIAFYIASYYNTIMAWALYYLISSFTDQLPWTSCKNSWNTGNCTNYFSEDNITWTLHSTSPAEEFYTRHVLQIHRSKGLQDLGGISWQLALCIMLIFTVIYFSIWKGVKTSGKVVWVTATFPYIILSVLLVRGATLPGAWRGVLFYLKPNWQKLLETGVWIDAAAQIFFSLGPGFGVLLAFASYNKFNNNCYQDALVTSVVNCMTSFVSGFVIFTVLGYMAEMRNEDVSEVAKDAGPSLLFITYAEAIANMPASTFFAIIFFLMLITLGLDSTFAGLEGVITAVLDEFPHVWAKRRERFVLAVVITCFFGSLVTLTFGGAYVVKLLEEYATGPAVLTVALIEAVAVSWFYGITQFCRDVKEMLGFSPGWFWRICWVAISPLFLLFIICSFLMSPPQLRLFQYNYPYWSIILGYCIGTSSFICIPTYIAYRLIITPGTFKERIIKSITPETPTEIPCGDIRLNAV

Cc1nc(-c2cnc(N3CCN(CCCc4c[nH]c5ccc(C#N)cc45)CC3)nc2)sc1C(N)=O [HEC113995PA·H2O]
related TEAE: diarrhea ([1]; MAD 10 mg): 2 cases | related TEAE: dizziness ([1]; MAD 10 mg): 1 case | related TEAE: elevated blood triglycerides ([1]; MAD 10 mg): 2 cases | related TEAE: nausea ([1]; MAD 10 mg): 1 case | Grade 2 related AE: elevated blood triglycerides ([1]; MAD 10 mg group): 1 case | related TEAE: elevated gamma-glutamyl transferase (γ-GT) ([1]; MAD 10 mg group): 1 case | related TEAE: oral ulcer ([1]; MAD 10 mg group): 2 cases | incidence of subjects experiencing TRAEs ([1]; MAD 10 mg group, 7 subjects): 70.0% | incidence of subjects experiencing TEAE ([1]; MAD 10 mg group, 8 subjects): 80.0% | related TEAE: diarrhea ([1]; MAD 20 mg): 1 case | related TEAE: dizziness ([1]; MAD 20 mg): 1 case | related TEAE: nausea ([1]; MAD 20 mg): 3 cases | incidence of subjects experiencing TRAEs ([1]; MAD 20 mg group, 6 subjects): 66.7% | incidence of subjects experiencing TEAE ([1]; MAD 20 mg group, 8 subjects): 88.9% | related TEAE: dizziness ([1]; MAD 40 mg): 4 cases | related TEAE: elevated blood triglycerides ([1]; MAD 40 mg): 3 cases | related TEAE: nausea ([1]; MAD 40 mg): 1 case | Grade 2 related AE: elevated blood cholesterol ([1]; MAD 40 mg group): 1 case | Grade 2 related AE: elevated blood triglycerides ([1]; MAD 40 mg group): 1 case | related TEAE: elevated gamma-glutamyl transferase (γ-GT) ([1]; MAD 40 mg group): 1 case | incidence of subjects experiencing TRAEs ([1]; MAD 40 mg group, 6 subjects): 60.0% | incidence of subjects experiencing TEAE ([1]; MAD 40 mg group, 8 subjects): 80.0% | Grade 3 or higher TEAEs related to the investigational product ([1]; MAD trial): no Grade 3 or higher TEAEs | related TEAE incidence: elevated gamma-glutamyl transferase (γ-GT) ([1]; MAD, 2/29): 6.9% | related TEAE incidence: oral ulcer ([1]; MAD, 2/29): 6.9% | related TEAE incidence: hyperuricemia ([1]; MAD, 2/29, both cases in the 40 mg group): 6.9% | related TEAE incidence: diarrhea ([1]; MAD, 3/29): 10.3% | related TEAE incidence: dry mouth ([1]; MAD, 3/29, all cases in the 10 mg group): 10.3% | related TEAE incidence: headache ([1]; MAD, 3/29, exclusively observed in the 20 mg group): 10.3% | related TEAE incidence: terminal insomnia ([1]; MAD, 3/29, limited to the 20 mg group): 10.3% | related TEAE incidence: elevated blood triglycerides ([1]; MAD, 5/29): 17.2% | related TEAE incidence: nausea ([1]; MAD, 5/29): 17.2% | related TEAE incidence: dizziness ([1]; MAD, 6/29): 20.7% | incidence of Grade 2 AEs related to the investigational product ([1]; MAD, HEC113995PA·H2O group, 3 cases): 10.3% | incidence of subjects experiencing TRAEs ([1]; MAD, HEC113995PA·H2O trial group, 19 subjects, 48 TRAEs): 65.5% | incidence of subjects experiencing TEAE ([1]; MAD, HEC113995PA·H2O trial group, 24 subjects, 85 incidents): 82.8% | tolerability ([1]; healthy Chinese subjects, multiple doses range 10–40 mg daily): well tolerated | incidence of subjects experiencing TEAEs ([2]; SAD 2.5 mg group, 1 case): 16.7% | incidence of subjects experiencing TEAEs ([2]; SAD 5 mg group, 3 cases): 37.5% | number of subjects experiencing TEAEs ([2]; SAD 10 mg group): 0 case | incidence of subjects experiencing TEAEs ([2]; SAD 20 mg group, 5 cases): 62.5% | incidence of subjects experiencing TEAEs ([2]; SAD 40 mg group, 6 cases): 75% | incidence of subjects experiencing TEAEs ([2]; SAD 60 mg group, 7 cases): 87.5% | incidence of subjects experiencing TEAEs ([2]; SAD 80 mg group, 7 cases): 87.5% | incidence of subjects experiencing TEAEs ([2]; SAD overall safety analysis set incl. placebo, 36 subjects): 52.9% | incidence of subjects experiencing TRAE ([2]; SAD overall safety analysis set, 33 cases): 48.5% | TRAE incidence: abdominal distension ([2]; SAD overall, 1 case): 1.9% | TRAE incidence: elevated conjugated bilirubin ([2]; SAD overall, 1 case): 1.9% | TRAE incidence: elevated serum bilirubin ([2]; SAD overall, 1 case): 1.9% | TRAE incidence: elevated serum creatine phosphokinase ([2]; SAD overall, 1 case): 1.9% | TRAE incidence: hyperuricemia ([2]; SAD overall, 5 cases): 7.4% | TRAE incidence: nausea ([2]; SAD overall, 5 cases): 7.4% | TRAE incidence: dizziness ([2]; SAD overall, 8 cases): 11.8% | TRAE incidence: elevated triglycerides ([2]; SAD overall, 8 cases): 11.8% | TRAE incidence: diarrhea ([2]; SAD overall, 13 cases): 19.1% | severity of elevated conjugated bilirubin ([2]; SAD, CTCAE 5.0): grade 2 | severity of other TRAEs ([2]; SAD, CTCAE 5.0, spontaneously relieved without treatment): grade 1 | tolerability ([2]; healthy Chinese subjects, single dose range 2.5–80 mg): well tolerated | pKa ([3]; read-out: acid-base ionization constant pKa1): 6.46 | pKa ([3]; read-out: acid-base ionization constant pKa2): 7.37 | affinity and antagonistic activity for the 5-HT transporter [4]: at the nanomolar level | higher affinities towards SERT and the 5-HT1A receptor than other receptors ([5]; in vitro selectivity): over 100 fold | in vitro affinities or activities to other receptors ([5]; other 5-HT receptor subtypes, histamine and acetylcholine receptors, unpublished data): at the micromolar level | duration of immobility [6]: significantly reduce | efficacy relative to HEC61139 (Vilazodone) [7]: more potent efficacy
